“Also recorded” adds a separate entry of the source. Where two headings read alike, the source gives them in different places. Values belong to the compound of their own block, whether it stands above or below them.
What was measured:
glutathione reductase [1] = target: T1, glutathione reductase (Homo sapiens (Human), UniProt P00390); assay: Glutathione reductase activity, DTNB chromogenic assay (Glutathione Reductase Assay Kit); assay type: biochemical; conditions: for IC50: read-out: IC50 of glutathione reductase activity inhibition; for inhibition of glutathione reductase activity: even at a concentration of 100 μM
Method: The spatial structures of the active centres of glutathione reductase and the enzymes of the Trx-TrxR system show a high similarity. […] The reactions for determining the activity of recombinant human glutathione reductase made use of a chromogenic reaction with 5,5′-dithiobis-2-nitrobenzoic acid, like in the case of thioredoxin reductase. Activity was determined after 5 and 10 min incubation at room temperature.

[2] = tested on: panel of human and murine lines of tumour cells; assay: Cytostatic/cytotoxic activity against panel of tumour cell lines (FIG. 1); assay type: cell-based; conditions: in words
Method: The cytostatic/cytotoxic activity against adherent cells, from solid tumours cells (EMT6, PAN02, CT26 and T24) was evaluated using the crystalline violet test, whereas against suspension-grown cells of the MTT line. b.d.=no data.
(§1) The cytostatic/cytotoxic activity was evaluated using the following lines of tumour cells: EMT6 (murine breast cancer), PANC02 (murine pancreatic cancer), B78 (murine melanoma), C-26 (murine colon cancer), K562 (human chronic myelogenic leukaemia), T24 (human bladder cancer), RAJI (human Burkitt's lymphoma), Ramos (human Burkitt's lymphoma). The cultures were maintained in the following media: DMEM (EMT6, PANC02, B78), RPMI (C-26, Raji, Ramos), IMDM (K562), McCoy's (T24) with an addition of 10% bovine serum (Invitrogen) and antibiotics (Sigma).
(§2) To determine cytostatic/cytotoxic activity of the evaluated compounds, cell cultures were initiated in 96-well plates. After 24 h, inhibitors were added at set concentrations. The results were determined using colorimetric methods following 72 hours of incubation. To determine cytostatic/cytotoxic activity, crystal violet dyeing was used (reading at 595 nm) or MTT (Sigma; reading at 570 nm).

[3] = tested on: Ramos (human Burkitt's lymphoma); assay: Cytostatic/cytotoxic activity, Ramos; assay type: cell-based; conditions: after 72 h of incubation
Method: as §1, §2

[4] = tested on: RAJI (human Burkitt's lymphoma); assay: Cytostatic/cytotoxic activity, RAJI; assay type: cell-based; conditions: after 72 h of incubation
Method: as §1, §2

[5] = tested on: C-26 (murine colon cancer); assay: Cytostatic/cytotoxic activity, C-26; assay type: cell-based; conditions: C-26, after 72 h of incubation
Method: as §1, §2

[6] = tested on: K562 (human chronic myelogenic leukaemia); assay: Cytostatic/cytotoxic activity, K562; assay type: cell-based; conditions: K562, after 72 h of incubation
Method: as §1, §2

[7] = tested on: PANC02 (murine pancreatic cancer); assay: Cytostatic/cytotoxic activity, PANC02; assay type: cell-based; conditions: PANC02, after 72 h of incubation
Method: as §1, §2

[8] = tested on: EMT6 (murine breast cancer); assay: Cytostatic/cytotoxic activity, EMT6; assay type: cell-based; conditions: for LD50 of the evaluated compound: EMT6, after 72 h of incubation
Method: as §1
To determine cytostatic/cytotoxic activity of the evaluated compounds, cell cultures were initiated in 96-well plates. After 24 h, inhibitors were added at set concentrations. The results were determined using colorimetric methods following 72 hours of incubation.

[9] = target: rat recombinant thioredoxin reductase (Rattus norvegicus (Rat), UniProt O89049); assay: Thioredoxin reductase activity, DTNB chromogenic assay (Thioredoxin Reductase Assay Kit); assay type: biochemical; conditions: for IC50: read-out: IC50 of thioredoxin reductase activity inhibition
Method: Reactions in which the activity of recombinant rat thioredoxin reductase was determined made use of a chromogenic reaction with 5,5′-dithiobis-2-nitrobenzoic acid.

[10] = target: human recombinant thioredoxin (Homo sapiens (Human), UniProt P10599); assay: Thioredoxin activity, insulin reduction / DTNB assay with recombinant enzymes; assay type: biochemical; conditions: for thioredoxin activity inhibition in comparison to PX-12: in words; for IC50: 37° C., 30 min, 0.25 μM thioredoxin, 0.325 μM thioredoxin reductase, read-out: IC50 of thioredoxin inhibition
Method: The method of determining thioredoxin activity is based on the reduction of insulin by thioredoxin. Thioredoxin is reconstituted is by thioredoxin reductase, with NADPH. The resulting free thiol —SH groups react with 5,5′-dithiobis-2-nitrobenzoic acid (DTNB). The termination of the reaction results in the formation of a […] colour. The intensity of colouration is determined spectrophotometrically at 412 nm and this corresponds to the number of reduced sulfahydryl groups. The reaction was performed at 37° C. over 30 min. in a buffer containing 50 mM Tris-HCl and 20 mM EDTA at a pH of 7.6. The substrate concentrations used were: 0.25 μM human recombinant thioredoxin and 0.325 μM rat recombinant thioredoxin reductase (IMCO Corporation Ltd AB, Sweden) and 316 μM of insulin, 0.8 μM NADPH, 8 mM DTNB (Sigma Aldrich).

T24 cells = assay: Cell cycle analysis by flow cytometry (propidium iodide); assay type: cell-based, human; conditions: T24, 72 hours of incubation
Description: The cell cycle is composed of a series of events leading to cell division. In the cell cycle we differentiate the following phases: G1 (interval between divisions), S (duplication of genetic material) and G2/M (division or mitosis). An analysis of the cel cycle using a flow-through cytometer makes it possible to determine the percentage of cells in each of the phases. Furthermore, the percentage of cells in the so-called subG1 phase: those, whose genetic material has degraded as a result of apoptosis or necrosis.
The cells were stained with propidium iodide at […] and analysed with flow-through cytometry. The percentage of dividing cells duplicating their genetic material (S phase) is clearly lower after incubation with inhibitors of thioredoxin.

B78 (murine melanoma) = assay: Cytostatic/cytotoxic activity, B78; assay type: cell-based; conditions: B78, after 72 h of incubation
Method: as §1, §2

[11] = tested on: T24 (human bladder cancer); assay: Cytostatic/cytotoxic activity, T24; assay type: cell-based; conditions: T24, after 72 h of incubation
Method: as §1, §2

glutathione reductase [12] = target: T1, glutathione reductase; conditions: literature (Gromer et al. 1998); cited from earlier work
thioredoxin reductase = thioredoxin reductase (Homo sapiens (Human), UniProt Q16881); conditions: literature (Gromer et al. 1998); cited from earlier work
Chain of thioredoxin reductase (Q16881 151-649): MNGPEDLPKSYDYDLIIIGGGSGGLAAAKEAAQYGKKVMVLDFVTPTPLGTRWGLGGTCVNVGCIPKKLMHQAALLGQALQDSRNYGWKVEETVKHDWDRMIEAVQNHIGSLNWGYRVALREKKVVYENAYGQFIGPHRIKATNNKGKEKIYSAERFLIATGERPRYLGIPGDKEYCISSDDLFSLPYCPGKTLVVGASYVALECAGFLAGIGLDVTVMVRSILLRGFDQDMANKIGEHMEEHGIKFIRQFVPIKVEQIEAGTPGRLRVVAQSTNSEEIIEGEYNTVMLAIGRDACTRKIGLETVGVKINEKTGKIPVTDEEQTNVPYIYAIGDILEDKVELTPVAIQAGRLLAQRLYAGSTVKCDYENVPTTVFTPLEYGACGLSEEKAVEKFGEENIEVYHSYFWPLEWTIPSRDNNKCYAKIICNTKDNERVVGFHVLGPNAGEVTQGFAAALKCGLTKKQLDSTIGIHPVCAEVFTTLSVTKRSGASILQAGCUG

Chain of rat recombinant thioredoxin reductase (O89049 whole entry): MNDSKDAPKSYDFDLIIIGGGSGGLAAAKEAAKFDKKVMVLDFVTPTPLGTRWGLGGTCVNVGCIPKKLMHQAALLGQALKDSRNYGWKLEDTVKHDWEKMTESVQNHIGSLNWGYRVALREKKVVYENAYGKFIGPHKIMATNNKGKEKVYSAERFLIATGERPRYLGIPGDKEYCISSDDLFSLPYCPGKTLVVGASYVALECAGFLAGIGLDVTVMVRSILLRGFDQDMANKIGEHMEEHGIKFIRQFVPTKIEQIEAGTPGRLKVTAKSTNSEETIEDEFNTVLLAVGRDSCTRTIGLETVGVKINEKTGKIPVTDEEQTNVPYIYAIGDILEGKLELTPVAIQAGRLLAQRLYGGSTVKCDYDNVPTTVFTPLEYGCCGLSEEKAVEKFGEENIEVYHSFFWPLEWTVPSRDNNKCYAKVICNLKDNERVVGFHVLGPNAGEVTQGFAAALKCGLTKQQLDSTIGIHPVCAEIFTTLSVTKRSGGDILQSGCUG
T1 sequence (P00390 44-522): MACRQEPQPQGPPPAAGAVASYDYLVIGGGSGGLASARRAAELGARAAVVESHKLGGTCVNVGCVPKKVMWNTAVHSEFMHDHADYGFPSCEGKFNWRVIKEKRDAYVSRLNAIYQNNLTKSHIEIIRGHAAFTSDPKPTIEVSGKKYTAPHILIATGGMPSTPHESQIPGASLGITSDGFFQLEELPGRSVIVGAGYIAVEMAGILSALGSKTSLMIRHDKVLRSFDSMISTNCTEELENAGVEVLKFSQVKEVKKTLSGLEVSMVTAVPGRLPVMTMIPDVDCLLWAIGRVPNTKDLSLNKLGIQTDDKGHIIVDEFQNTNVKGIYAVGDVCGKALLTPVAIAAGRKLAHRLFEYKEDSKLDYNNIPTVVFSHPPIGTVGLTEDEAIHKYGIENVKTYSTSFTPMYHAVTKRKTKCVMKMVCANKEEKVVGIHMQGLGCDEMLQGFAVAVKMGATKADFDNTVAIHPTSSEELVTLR
Chain of human recombinant thioredoxin (P10599 whole entry): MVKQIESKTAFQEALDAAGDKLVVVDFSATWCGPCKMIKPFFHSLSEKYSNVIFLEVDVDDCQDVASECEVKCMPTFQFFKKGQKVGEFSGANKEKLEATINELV

Compound: C=C(COC(=O)c1c(C(F)(F)F)cccc1C(F)(F)F)C(=O)NC(CC(C)C)C(=O)NCC(=O)OCC (racemic) [Compound 3a, 2-((1-((2-ethoxy-2-oxoethyl)amino)-4-methyl-1-oxopentan-2-yl)carbamoyl)allyl 2,6-bis(trifluoromethyl)benzoate]
IC50 (glutathione reductase [1]; 5 min from reaction onset): > 100 µM
IC50 (glutathione reductase [1]; 10 min from reaction onset): > 100 µM
inhibition of glutathione reductase activity (glutathione reductase [1]): None
cytostatic/cytotoxic activity [2]: comparable
LD50 of the evaluated compound [3]: 3.3 µM
LD50 of the evaluated compound [4]: 4.6 µM
LD50 of the evaluated compound [5]: 3.2 µM
LD50 of the evaluated compound [6]: 3.8 µM
LD50 of the evaluated compound [7]: 3.2 µM
cytostatic/cytotoxic activity in comparison to PX-12 ([8]; EMT6): over two times more active
LD50 of the evaluated compound [8]: 5.3 µM
IC50 ([9]; 5 min from reaction onset): 37.1 µM
IC50 ([9]; 15 min from reaction onset): > 40 µM
inhibition of thioredoxin reductase activity ([9]; in words): slightly inhibited
thioredoxin reductase activity inhibition in comparison to PX-12 ([9]; in words): about three times less; also recorded: IC50 nearly three times higher
thioredoxin activity inhibition in comparison to PX-12 [10]: concentrations smaller than compound PX-12; also recorded: three times stronger
percentage of dividing cells duplicating their genetic material (S phase) (T24 cells): clearly lower
LD50 of the evaluated compound (B78 (murine melanoma)): 4.3 µM
LD50 of the evaluated compound [11]: 5.1 µM

IC50 [10]: 2.9 µM
thioredoxin IC50, times lower than for PX-12 ([10]; ratio to PX-12): about 5 times
Compound: C=C(COC(=O)c1c(Cl)cccc1Cl)C(=O)NC(CC(C)C)C(=O)NCC(=O)OCC (racemic) [Compound 3b, 2-((1-((2-ethoxy-2-oxoethyl)amino)-4-methyl-1-oxopentan-2-yl)carbamoyl)allyl 2,6-dichlorobenzoate]
cytostatic/cytotoxic activity [2]: strong cytostatic/cytotoxic activity
thioredoxin activity inhibition in comparison to PX-12 [10]: concentrations smaller than compound PX-12

IC50 (glutathione reductase [1]; 5 min from reaction onset): > 100 µM
IC50 (glutathione reductase [1]; 10 min from reaction onset): > 100 µM
IC50 ([9]; 5 min from reaction onset): > 40 µM
IC50 ([9]; 15 min from reaction onset): > 40 µM
Compound: C=C(COC(=O)c1c(C(F)(F)F)cccc1C(F)(F)F)C(=O)NCc1ccccc1 [Compound 8a, 2-(benzylcarbamoyl)allyl 2,6-bis(trifluoromethyl)benzoate]
cytostatic/cytotoxic activity [2]: strong cytostatic/cytotoxic activity

IC50 (glutathione reductase [1]; 5 min from reaction onset): > 100 µM
IC50 (glutathione reductase [1]; 10 min from reaction onset): > 100 µM
inhibition of glutathione reductase activity (glutathione reductase [1]): None
IC50 ([9]; 5 min from reaction onset): > 40 µM
IC50 ([9]; 15 min from reaction onset): > 40 µM
IC50 [10]: 5.9 µM
selectivity as thioredoxin inhibitor in comparison to PX-12 ([10]; from Tables 1, 2 and 3): considerably more selective
Compound: C=C(COC(=O)c1c(Cl)cccc1Cl)C(=O)NCc1ccccc1 [Compound 8b, 2-(benzylcarbamoyl)allyl 2,6-dichlorobenzoate]
cytostatic/cytotoxic activity [2]: strong cytostatic/cytotoxic activity
thioredoxin activity inhibition in comparison to PX-12 [10]: concentrations smaller than compound PX-12

Compound: C=C(COC(=O)c1c(C(F)(F)F)cccc1C(F)(F)F)C(=O)N[C@H](CC(C)C)C(=O)NCC(=O)OCC [Compound D-3a, (R)-2-((1-((2-ethoxy-2-oxoethyl)amino)-4-methyl-1-oxopentan-2-yl)carbamoyl)allyl 2,6-bis(trifluoromethyl)benzoate]
cytostatic/cytotoxic activity [2]: strong cytostatic/cytotoxic activity
thioredoxin activity inhibition in comparison to PX-12 [10]: concentrations smaller than compound PX-12

Compound: C=C(COC(=O)c1c(C(F)(F)F)cccc1C(F)(F)F)C(=O)N[C@@H](CC(C)C)C(=O)NCC(=O)OCC [Compound L-3a, (S)-2-((1-((2-ethoxy-2-oxoethyl)amino)-4-methyl-1-oxopentan-2-yl)carbamoilo)allyl 2,6-bis(trifluoromethyl)benzoate]
cytostatic/cytotoxic activity [2]: strong cytostatic/cytotoxic activity
thioredoxin activity inhibition in comparison to PX-12 [10]: concentrations smaller than compound PX-12

Compound: CCC(C)SSc1ncc[nH]1 (stereo not drawn) [PX-12, 1-methylpropyl-2-imidazole disulphide, reference compound]
IC50 (glutathione reductase [1]; 5 min from reaction onset): 19.8 µM
IC50 (glutathione reductase [1]; 10 min from reaction onset): 28.6 µM
LD50 of the evaluated compound [3]: 3.7 µM
LD50 of the evaluated compound [4]: 5.9 µM
LD50 of the evaluated compound [5]: 5.4 µM
LD50 of the evaluated compound [6]: 4.9 µM
LD50 of the evaluated compound [7]: 3.8 µM
LD50 of the evaluated compound [8]: 12.7 µM
percentage of dividing cells duplicating their genetic material (S phase) (T24 cells): clearly lower
LD50 of the evaluated compound (B78 (murine melanoma)): 5.3 µM
LD50 of the evaluated compound [11]: 4.5 µM

Compound: CC[P](CC)(CC)=[Au][S]C1OC(OC(C)=O)C(OC(C)=O)C(OC(C)=O)C1OC(C)=O (stereo not drawn) [auranofin]
concentrations inhibiting glutathione reductase (glutathione reductase [12]): micromolar levels
concentrations inhibiting thioredoxin reductase (thioredoxin reductase): nanomolar concentrations
